Entries after “also recorded” stand apart in the source; their conditions may differ. Square brackets hold non-standard residues; d marks the D form. Ends that are not written are not given here. Peptide text beside a SMILES is read from it. pGlu = O=C1CC[C@@H](C(=O)O)N1
Legend:
[1] = target: T1, B. floridae GnRHR1 (Branchiostoma floridae, UniProt C0IP19); assay: Luminescence response in HEK293-G5a cells expressing B. floridae GnRHR1 (with Gαqi9); format: cell-based
T1 sequence (C0IP19 1-403): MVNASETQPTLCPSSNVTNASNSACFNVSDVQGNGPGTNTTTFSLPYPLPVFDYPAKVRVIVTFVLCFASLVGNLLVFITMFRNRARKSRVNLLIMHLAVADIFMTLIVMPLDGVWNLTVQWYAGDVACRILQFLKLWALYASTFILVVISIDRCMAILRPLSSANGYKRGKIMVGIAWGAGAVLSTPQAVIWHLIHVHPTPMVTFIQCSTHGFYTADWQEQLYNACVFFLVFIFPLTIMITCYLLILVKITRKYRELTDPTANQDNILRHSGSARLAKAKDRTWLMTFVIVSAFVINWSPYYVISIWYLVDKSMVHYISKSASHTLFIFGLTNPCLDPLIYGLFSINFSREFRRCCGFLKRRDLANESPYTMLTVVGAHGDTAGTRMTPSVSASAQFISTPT
Excerpt: (§1) For this purpose, we expressed individual receptors in a heterologous expression system comprising human embryo kidney 293 cells (HEK293-G5a) cells and monitored luminescence responses to three synthetic peptides.
(§2) Five millimoles of stock solutions of all peptides were first prepared in 50% Dimethyl sulfoxide. […] These receptors were codon-optimized for mammalian cell lines, synthesized and cloned into pcDNA3.4(+) vector by Genscript synthesis services. A 5′ partial Kozak translation initiation sequence (CCACC) was also included to improve expression. The codon-optimized receptor sequences are provided in supplementary file 9, Supplementary Material online. HEK293-G5a (Angio-proteomie CAT no. cAP-0200GFP-AEQ-Cyto) cells were cultured in 96 well-plates containing 100 μl of Dublecco’s Modified Eagle medium (DMEM; Thermo; Cat. No. 10566016) supplemented with 10% foetal bovine serum (Thermo; Cat. No. 10082147). The plates were kept in an incubator at 37°C and 5% CO2. Upon reaching 85% confluency, cells were co-transfected with plasmids encoding individual receptors or the empty pcDNA3.1 + vector (control), and the Gαqi9 promiscuous protein [Addgene; Cat. No. 125711 {[Masharina et al. 2012]}], as described previously ([Yañez-Guerra et al. 2022]). Transfections were carried out with 60 ng of each plasmid and 0.45 μl of the transfection reagent Transfectamine 5,000 (AAT-bioquest; Cat. No. 60022) per well. Two days post-transfection, the media was replaced with fresh DMEM medium supplemented with […] coelenterazine-H (Thermo Fisher Scientific; Cat. No. C6780). The cells were incubated for 2 h and then used for the luminescence assay. Various concentrations of the three synthetic peptides ranging from 10^−4 M to 10^−12 M were prepared in DMEM media and tested on the cells. Luminescence levels were recorded and integrated over a 65-s measurement period in a FlexStation 3 Multi-Mode Microplate Reader (Molecular Devices). A minimum of two independent transfections (biological replicates) for each receptor and two–three technical replicates for each peptide concentration were performed. […]

[2] = target: T2, B. floridae GnRHR2 (Branchiostoma floridae, UniProt C0IP20); assay: Luminescence response in HEK293-G5a cells expressing B. floridae GnRHR2 (with Gαqi9); format: cell-based
T2 sequence (C0IP20 1-397): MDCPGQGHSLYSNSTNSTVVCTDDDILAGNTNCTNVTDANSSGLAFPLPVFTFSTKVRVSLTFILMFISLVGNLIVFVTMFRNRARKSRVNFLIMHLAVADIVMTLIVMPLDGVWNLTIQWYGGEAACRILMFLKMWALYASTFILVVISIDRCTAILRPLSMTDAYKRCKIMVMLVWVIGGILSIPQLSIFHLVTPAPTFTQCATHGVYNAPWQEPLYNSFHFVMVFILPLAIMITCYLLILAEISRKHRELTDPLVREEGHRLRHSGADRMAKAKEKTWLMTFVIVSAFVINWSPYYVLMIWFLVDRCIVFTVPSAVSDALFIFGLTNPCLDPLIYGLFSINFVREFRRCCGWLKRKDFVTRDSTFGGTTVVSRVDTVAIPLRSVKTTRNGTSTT
Excerpt: as §1, §2

[3] = target: T3, B. floridae CRZR1 (Branchiostoma floridae, UniProt C0IP22); assay: Luminescence response in HEK293-G5a cells expressing B. floridae CRZR1 (with Gαqi9); format: cell-based
T3 sequence (C0IP22 1-831): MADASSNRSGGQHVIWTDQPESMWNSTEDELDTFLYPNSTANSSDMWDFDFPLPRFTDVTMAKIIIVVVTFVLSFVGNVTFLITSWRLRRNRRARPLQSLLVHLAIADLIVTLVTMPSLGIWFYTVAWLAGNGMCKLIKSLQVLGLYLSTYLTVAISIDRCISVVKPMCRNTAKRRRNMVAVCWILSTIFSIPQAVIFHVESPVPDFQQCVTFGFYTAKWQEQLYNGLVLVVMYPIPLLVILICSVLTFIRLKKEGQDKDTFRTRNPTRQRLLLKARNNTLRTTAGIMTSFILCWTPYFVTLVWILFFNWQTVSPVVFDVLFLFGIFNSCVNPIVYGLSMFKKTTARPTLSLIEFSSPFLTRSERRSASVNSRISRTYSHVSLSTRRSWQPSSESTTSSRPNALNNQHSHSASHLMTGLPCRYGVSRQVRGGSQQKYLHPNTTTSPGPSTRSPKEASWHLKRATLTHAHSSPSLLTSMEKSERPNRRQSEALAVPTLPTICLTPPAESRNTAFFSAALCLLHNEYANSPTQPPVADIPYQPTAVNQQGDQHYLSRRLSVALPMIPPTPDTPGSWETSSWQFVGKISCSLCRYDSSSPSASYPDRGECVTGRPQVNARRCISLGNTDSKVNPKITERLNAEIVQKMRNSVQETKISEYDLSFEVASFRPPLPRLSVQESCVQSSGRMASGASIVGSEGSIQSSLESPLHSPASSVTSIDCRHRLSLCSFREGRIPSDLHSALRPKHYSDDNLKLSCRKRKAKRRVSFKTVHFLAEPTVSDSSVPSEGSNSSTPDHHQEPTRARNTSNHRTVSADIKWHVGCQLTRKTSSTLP
Excerpt: as §1, §2

[4] = target: T4, B. floridae CRZR3 (Branchiostoma floridae, UniProt A0A9J7HT38); assay: Luminescence response in HEK293-G5a cells expressing B. floridae CRZR3 (with Gαqi9); format: cell-based; conditions: for EC50: fig. 2D, HEK293-G5a, Gαqi9, 10^−4 M to 10^−12 M in DMEM, luminescence integrated over 65 s, normalized to maximum response, four-parameter curve, minimum of two independent transfections, read-out: EC50 values for the dose–response curves, CRZR3
T4 sequence (A0A9J7HT38 1-394): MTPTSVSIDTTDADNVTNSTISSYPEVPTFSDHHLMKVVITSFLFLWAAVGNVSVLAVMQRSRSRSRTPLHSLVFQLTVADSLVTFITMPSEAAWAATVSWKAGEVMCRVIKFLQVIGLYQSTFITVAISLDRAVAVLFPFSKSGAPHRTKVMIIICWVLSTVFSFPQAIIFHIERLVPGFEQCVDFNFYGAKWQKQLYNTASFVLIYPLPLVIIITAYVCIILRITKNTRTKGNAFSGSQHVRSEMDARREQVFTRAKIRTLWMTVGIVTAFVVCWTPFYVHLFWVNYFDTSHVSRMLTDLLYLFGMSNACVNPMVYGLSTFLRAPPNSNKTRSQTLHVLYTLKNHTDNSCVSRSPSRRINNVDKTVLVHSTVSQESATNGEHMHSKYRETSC
Excerpt: as §1
Five millimoles of stock solutions of all peptides were first prepared in 50% Dimethyl sulfoxide. […] These receptors were codon-optimized for mammalian cell lines, synthesized and cloned into pcDNA3.4(+) vector by Genscript synthesis services. A 5′ partial Kozak translation initiation sequence (CCACC) was also included to improve expression. The codon-optimized receptor sequences are provided in supplementary file 9, Supplementary Material online. HEK293-G5a (Angio-proteomie CAT no. cAP-0200GFP-AEQ-Cyto) cells were cultured in 96 well-plates containing 100 μl of Dublecco’s Modified Eagle medium (DMEM; Thermo; Cat. No. 10566016) supplemented with 10% foetal bovine serum (Thermo; Cat. No. 10082147). The plates were kept in an incubator at 37°C and 5% CO2. Upon reaching 85% confluency, cells were co-transfected with plasmids encoding individual receptors or the empty pcDNA3.1 + vector (control), and the Gαqi9 promiscuous protein [Addgene; Cat. No. 125711 {[Masharina et al. 2012]}], as described previously ([Yañez-Guerra et al. 2022]). Transfections were carried out with 60 ng of each plasmid and 0.45 μl of the transfection reagent Transfectamine 5,000 (AAT-bioquest; Cat. No. 60022) per well. Two days post-transfection, the media was replaced with fresh DMEM medium supplemented with […] coelenterazine-H (Thermo Fisher Scientific; Cat. No. C6780). The cells were incubated for 2 h and then used for the luminescence assay. Various concentrations of the three synthetic peptides ranging from 10^−4 M to 10^−12 M were prepared in DMEM media and tested on the cells. Luminescence levels were recorded and integrated over a 65-s measurement period in a FlexStation 3 Multi-Mode Microplate Reader (Molecular Devices). A minimum of two independent transfections (biological replicates) for each receptor and two–three technical replicates for each peptide concentration were performed. The responses were normalized to the maximum response obtained following the addition of peptide in each experiment (100% activation) and to the response obtained with the vehicle media (0% activation). Normalized data from the independent transfections was used to plot the dose–response curves (fitted with a four-parameter curve) using the package drc in R ([Ritz et al. 2015]). The raw data for the emtpy-vector control and receptor characterization are provided in supplementary files 10 and 11, Supplementary Material online, respectively. The script used for the dose–response curve analysis is available on Github (https://github.com/Imnotabioinformatician/Branchiostoma_Dose_response_curves).

[5] = target: T5, B. floridae CRZR2 (Branchiostoma floridae, UniProt C4N9P5); assay: Luminescence response in HEK293-G5a cells expressing B. floridae CRZR2 (with Gαqi9); format: cell-based
T5 sequence (C4N9P5 1-421): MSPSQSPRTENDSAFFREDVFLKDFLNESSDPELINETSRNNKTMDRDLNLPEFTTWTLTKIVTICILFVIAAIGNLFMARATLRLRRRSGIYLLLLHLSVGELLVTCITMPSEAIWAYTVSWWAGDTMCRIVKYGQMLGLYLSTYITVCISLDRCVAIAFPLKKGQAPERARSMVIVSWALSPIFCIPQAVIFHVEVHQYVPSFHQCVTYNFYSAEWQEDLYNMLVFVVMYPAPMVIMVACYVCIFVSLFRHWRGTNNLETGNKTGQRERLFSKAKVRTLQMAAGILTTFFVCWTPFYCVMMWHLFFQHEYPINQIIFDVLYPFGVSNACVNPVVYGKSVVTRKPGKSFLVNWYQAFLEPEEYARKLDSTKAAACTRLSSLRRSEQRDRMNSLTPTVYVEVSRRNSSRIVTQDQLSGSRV
Excerpt: as §1
Five millimoles of stock solutions of all peptides were first prepared in 50% Dimethyl sulfoxide. […] These receptors were codon-optimized for mammalian cell lines, synthesized and cloned into pcDNA3.4(+) vector by Genscript synthesis services. A 5′ partial Kozak translation initiation sequence (CCACC) was also included to improve expression. The codon-optimized receptor sequences are provided in supplementary file 9, Supplementary Material online. HEK293-G5a (Angio-proteomie CAT no. cAP-0200GFP-AEQ-Cyto) cells were cultured in 96 well-plates containing 100 μl of Dublecco’s Modified Eagle medium (DMEM; Thermo; Cat. No. 10566016) supplemented with 10% foetal bovine serum (Thermo; Cat. No. 10082147). The plates were kept in an incubator at 37°C and 5% CO2. […] The cells were incubated for 2 h and then used for the luminescence assay. […] Luminescence levels were recorded and integrated over a 65-s measurement period in a FlexStation 3 Multi-Mode Microplate Reader (Molecular Devices). […]

[6] = target: one of the two CRZ-like receptors; design: method as in Roch, Tello, et al. 2014; conditions: ref Roch, Tello, et al. 2014; cited from earlier work

| Molecule | EC50 for the response, GnRHR1 (in words) ([1]; HEK293-G5a cells, luminescence) | EC50 ([1]; fig. 2D, HEK293-G5a, Gαqi9, 10^−4 M to 10^−12 M in DMEM, luminescence integrated over 65 s, normalized to maximum response, four-parameter curve, minimum of two independent transfections, read-out: EC50 values for the dose–response curves, GnRHR1) | EC50 for the response, GnRHR2 (in words) ([2]; HEK293-G5a cells, luminescence) | EC50 ([2]; fig. 2D, HEK293-G5a, Gαqi9, 10^−4 M to 10^−12 M in DMEM, luminescence integrated over 65 s, normalized to maximum response, four-parameter curve, minimum of two independent transfections, read-out: EC50 values for the dose–response curves, GnRHR2) | EC50 for the response, CRZR1 (in words) [3] | EC50 [4] | activation of GnRHR1 (in words) ([1]; HEK293-G5a cells, luminescence) | activation of GnRHR2 (in words) ([2]; HEK293-G5a cells, luminescence) | activation of CRZR1 (in words) [3] | EC50 for the response, CRZR2 (in words) [5] | activation of CRZR2 (in words) [5] | EC50 for the response, CRZR3 (in words) ([4]; HEK293-G5a cells, luminescence) | activation of CRZR3 (in words) ([4]; HEK293-G5a cells, luminescence) | activation of one of the two CRZ-like receptors (in words) [6] |
| --- | --- | --- | --- | --- | --- | --- | --- | --- | --- | --- | --- | --- | --- | --- |
| YSYSYGFAP-NH2 | low nanomolar range | 3.2 nM | low nanomolar range | 2.2 nM | mid-to-low nanomolar physiological range | 3800 nM |  |  |  |  |  |  |  |  |
| FTYTHTW-NH2 [CRZ, FTYTHTW-NH2] |  |  |  |  |  | 6.9 nM |  |  |  |  |  |  |  |  |
| CC[C@H](C)[C@H](NC(=O)[C@@H]1CCC(=O)N1)C(=O)N[C@@H](CC(C)C)C(=O)N[C@@H](CS)C(=O)N[C@@H](C)C(=O)N[C@@H](CCCNC(=N)N)C(=O)N[C@@H](C)C(=O)N[C@@H](Cc1ccccc1)C(=O)N[C@H](C(=O)N[C@@H](Cc1ccc(O)cc1)C(=O)N[C@H](C(=O)N[C@@H](Cc1c[nH]cn1)C(=O)N[C@H](C(=O)N[C@@H](Cc1c[nH]c2ccccc12)C(N)=O)[C@@H](C)O)[C@@H](C)O)[C@@H](C)O [CRZ-ext] ([pGlu]ILCARAFTYTHTW-NH2) |  |  |  |  | equally high | 950 nM | Neither of these two receptors were activated | Neither of these two receptors were activated | all activated by CRZ, GnRH, and CRZ-ext; also recorded: also activated by CRZ-ext | high nanomolar range | all activated by CRZ, GnRH, and CRZ-ext | equally high | all activated by CRZ, GnRH, and CRZ-ext; also recorded: also activated by CRZ-ext | high nanomolar range |

Source: article PMC10321317 (Genome Biology and Evolution, 2023)
